Source: US9045491B2, “Thienyl [3,2-D] pyrimidin-4-one compounds, preparation method, pharmaceutical compositions and use thereof” (SHANGHAI INSTITUTE OF MATERIA MEDICA, CHINESE ACADEMY OF …, priority 2011, dated 2015)
Where “and” joins values, the source holds several entries; their conditions need not be identical. Equal values may be shown once.

Test: Pharmacokinetics of DC291407 and metabolites in rats (LC-MS/MS)
Format: in vivo, Sprague-Dawley (SD) rats
Experimental: The concentration of metabolite M1 (4071001), metabolite M2 (407002) or metabolite M3 (407003) in plasma was determined by LC-MS/MS method after DC291407 was administrated to the rats through gavage and intravenous injection.
The LC/MS/MS used is triple quadruple LC/MS 6460 from Agilent.
Six healthy male Sprague-Dawley (SD) rats with the weight of 180-220 g were randomly divided into 2 groups. The rats in each group were administrated with the tested compound by gavage or intravenous injection, respectively.
The compound was dissolved in 6.7% DMSO/6.7% Tween/86.6% normal saline.
The rats fasted for 12 h and can drink water ad libitum. 2 h after dosing, the rats were provided with food all together. The time point for collecting blood samples and the sample processing are listed as follows.
Intragastric administration: 0.25, 0.5, 1.0, 2.0, 3.0, 4.0, 6.0, 8.0 and 24 h after administration;
Intravenous administration: 5 min, 0.25, 0.5, 1.0, 2.0, 4.0, 6.0, 8.0 and 24 h after administration. At above time point, 0.3 ml venous blood was taken from retrobulbar venous plexus of the rat and loaded into heparinization tube. After centrifuged at 11000 rpm for 5 min, the plasma was separated and frozen at −20° C. in a refrigerator.

[1] = intravenous injection 10 mg/kg DC291407, average of 3 animals
[2] = intravenous injection 10 mg/kg DC291407, individual animals, 10 mg/kg
[3] = intravenous injection 10 mg/kg DC291407, time 0.083 h, average of 3 animals
[4] = intravenous injection 10 mg/kg DC291407, time 0.083 h, individual animals, 10 mg/kg
[5] = intravenous injection 10 mg/kg DC291407, time 0.25 h, average of 3 animals
[6] = intravenous injection 10 mg/kg DC291407, time 0.25 h, individual animals, 10 mg/kg
[7] = intravenous injection 10 mg/kg DC291407, time 0.50 h, average of 3 animals
[8] = intravenous injection 10 mg/kg DC291407, time 0.50 h, individual animals, 10 mg/kg
[9] = intravenous injection 10 mg/kg DC291407, time 1.0 h, average of 3 animals
[10] = intravenous injection 10 mg/kg DC291407, time 1.0 h, individual animals, 10 mg/kg
[11] = intravenous injection 10 mg/kg DC291407, time 2.0 h, average of 3 animals
[12] = intravenous injection 10 mg/kg DC291407, time 2.0 h, individual animals, 10 mg/kg
[13] = intravenous injection 10 mg/kg DC291407, time 4.0 h, individual animals, BLQ = below lower quantification
[14] = intravenous injection 10 mg/kg DC291407, time 6.0 h, individual animals, BLQ = below lower quantification
[15] = intravenous injection 10 mg/kg DC291407, time 8.0 h, individual animals, BLQ = below lower quantification
[16] = intravenous injection 10 mg/kg DC291407, time 24 h, individual animals, BLQ = below lower quantification

COC(=O)c1cc2nc(N3CCCC(N)C3)n(Cc3ccccc3C#N)c(=O)c2s1 (stereo not drawn) [DC291407]
Vss of prototype drug [1]: 210 L/kg | t1/2 of metabolite M1 [1]: 738 min | t1/2 of prototype drug [1]: 40.8 min | Tmax of metabolite M1 (intravenous injection 10 mg/kg DC291407, individual animals): 4.98 min | AUC0-t of metabolite M1 [2]: 22692 ng·h/mL and 20658 ng·h/mL and 23472 ng·h/mL | AUC0-t of prototype drug [2]: 42.4 ng·h/mL and 40.9 ng·h/mL and 24.8 ng·h/mL | AUC0-∞ of metabolite M1 [2]: 23114 ng·h/mL and 20834 ng·h/mL and 23603 ng·h/mL | AUC0-∞ of prototype drug [2]: 45.9 ng·h/mL and 43.9 ng·h/mL and 29.8 ng·h/mL | CL of prototype drug [2]: 218 L/h/kg and 228 L/h/kg and 335 L/h/kg | Cmax of metabolite M1 [2]: 39818 ng/mL and 41730 ng/mL and 53535 ng/mL | MRT of metabolite M1 [2]: 96 min and 60.6 min and 47.4 min | MRT of prototype drug [2]: 40.8 min and 40.2 min and 58.8 min | Vss of prototype drug [2]: 148 L/kg and 154 L/kg and 328 L/kg | t1/2 of metabolite M1 [2]: 1150 min and 551 min and 504 min | t1/2 of prototype drug [2]: 30.6 min and 31.8 min and 60.6 min | Plasma concentration of metabolite M1 [3]: 45028 ng/mL | Plasma concentration of metabolite M2 [3]: 117 ng/mL | Plasma concentration of prototype compound [3]: 59.2 ng/mL | Plasma concentration of metabolite M1 [4]: 39818 ng/mL and 41730 ng/mL and 53535 ng/mL | Plasma concentration of metabolite M2 [4]: 126 ng/mL and 209 ng/mL and 15.0 ng/mL | Plasma concentration of prototype compound [4]: 63.4 ng/mL and 60.7 ng/mL and 53.4 ng/mL | Plasma concentration of metabolite M1 [5]: 29232 ng/mL | Plasma concentration of metabolite M2 [5]: 339 ng/mL | Plasma concentration of prototype compound [5]: 34.8 ng/mL | Plasma concentration of metabolite M1 [6]: 28858 ng/mL and 29247 ng/mL and 29592 ng/mL | Plasma concentration of metabolite M2 [6]: 866 ng/mL and 132 ng/mL and 20.3 ng/mL | Plasma concentration of prototype compound [6]: 49.7 ng/mL and 34.4 ng/mL and 20.3 ng/mL | Plasma concentration of metabolite M1 [7]: 9487 ng/mL | Plasma concentration of metabolite M2 [7]: 102 ng/mL | Plasma concentration of prototype compound [7]: 23.0 ng/mL | Plasma concentration of metabolite M1 [8]: 11784 ng/mL and 7251 ng/mL and 9426 ng/mL | Plasma concentration of metabolite M2 [8]: 144 ng/mL and 153 ng/mL and 9.39 ng/mL | Plasma concentration of prototype compound [8]: 27.4 ng/mL and 31.7 ng/mL and 9.72 ng/mL | Plasma concentration of metabolite M1 [9]: 4717 ng/mL | Plasma concentration of metabolite M2 [9]: 23.4 ng/mL | Plasma concentration of prototype compound [9]: 9.9 ng/mL | Plasma concentration of metabolite M1 [10]: 5628 ng/mL and 4634 ng/mL and 3891 ng/mL | Plasma concentration of metabolite M2 [10]: 36.0 ng/mL and 30.9 ng/mL and 3.26 ng/mL | Plasma concentration of prototype compound [10]: 11.3 ng/mL and 11.9 ng/mL and 6.61 ng/mL | Plasma concentration of metabolite M1 [11]: 310 ng/mL | Plasma concentration of prototype compound [11]: 4.05 ng/mL | Plasma concentration of metabolite M1 [12]: 401 ng/mL and 214 ng/mL and 314.7 ng/mL | Plasma concentration of prototype compound [12]: 4.75 ng/mL and 3.94 ng/mL and 3.44 ng/mL | Plasma concentration of metabolite M2 (intravenous injection 10 mg/kg DC291407, time 2.0 h, individual animals, BLQ = below lower quantification, 10 mg/kg): BLQ (2×) and 7.18 ng/mL | Plasma concentration of metabolite M1 (intravenous injection 10 mg/kg DC291407, time 4.0 h, average of 3 animals): 69.7 ng/mL | Plasma concentration of metabolite M1 (intravenous injection 10 mg/kg DC291407, time 4.0 h, individual animals, 10 mg/kg): 55.4 ng/mL and 68.1 ng/mL and 85.5 ng/mL | Plasma concentration of metabolite M2 [13]: BLQ | Plasma concentration of prototype compound [13]: BLQ | Plasma concentration of metabolite M1 (intravenous injection 10 mg/kg DC291407, time 6.0 h, average of 3 animals): 40.5 ng/mL | Plasma concentration of metabolite M1 (intravenous injection 10 mg/kg DC291407, time 6.0 h, individual animals, 10 mg/kg): 30.9 ng/mL and 41.4 ng/mL and 49.3 ng/mL | Plasma concentration of metabolite M2 [14]: BLQ | Plasma concentration of prototype compound [14]: BLQ | Plasma concentration of metabolite M1 (intravenous injection 10 mg/kg DC291407, time 8.0 h, average of 3 animals): 37.3 ng/mL | Plasma concentration of metabolite M1 (intravenous injection 10 mg/kg DC291407, time 8.0 h, individual animals, 10 mg/kg): 24.8 ng/mL and 48.5 ng/mL and 38.5 ng/mL | Plasma concentration of metabolite M2 [15]: BLQ | Plasma concentration of prototype compound [15]: BLQ | Plasma concentration of metabolite M1 (intravenous injection 10 mg/kg DC291407, time 24 h, average of 3 animals): 13.1 ng/mL | Plasma concentration of metabolite M1 (intravenous injection 10 mg/kg DC291407, time 24 h, individual animals, 10 mg/kg): 15.2 ng/mL and 13.3 ng/mL and 10.8 ng/mL | Plasma concentration of metabolite M2 [16]: BLQ | Plasma concentration of prototype compound [16]: BLQ
